Experimental data from patent US20240382629A1, “HETEROBIVALENT AND HOMOBIVALENT AGENTS TARGETING FIBROBLAST ACTIVATION PROTEIN ALPHA AND/OR PROSTATE-SPECIFIC MEMBRANE ANTIGEN” (The Johns Hopkins University, priority 2021, published 2024).
Where “and” joins values, the source holds several entries; their conditions need not be identical. Equal entries are not always repeated.

Test system: U87 tumor
Experiment: Biodistribution ([^18F]JHU1221823), carrier / specific activity study
Type: in vivo, mouse
Conditions: individual mouse
Excerpt: Biodistribution of Representative Compounds

[1] = + 0.05 nmole carrier, 60 min post injection
[2] = + 0.1 nmole carrier, 60 min post injection
[3] = + 0.25 nmole carrier, 60 min post injection
[4] = NOD/SCID, U87 tumor, Carrier 350 (350 mCi/μmol), 60 min post injection
[5] = NOD/SCID, U87 tumor, Carrier 700, 60 min post injection

Q: How did the “Bladder % ID/g” value (+ 0.01 nmole carrier) turn out when N#C[C@@H]1CCCN1C(=O)CNC(=O)c1ccnc2ccc(OCCCNC(=O)CCOCCOCCOCCOCCNC(=O)[C@H](CCCCNC(=O)c3ccc([18F])nc3)NC(=O)CN3CCN(CC(=O)O)CCN(CC(=O)O)CCN(CC(=O)O)CC3)cc12 [[^18F]JHU1221823] was run?
A: The value was 1.82 % ID/g and 2.18 % ID/g.

Q: What about the “Blood % ID/g” value (+ 0.01 nmole carrier) of the same compound?
A: The value was 11.19 % ID/g and 11.39 % ID/g.

Q: What about the “Brain % ID/g” value (+ 0.01 nmole carrier) of the same compound?
A: Its value is 0.32 % ID/g and 0.28 % ID/g.

Q: And the “Fat % ID/g” value (+ 0.01 nmole carrier)?
A: Its value is 0.23 % ID/g and 0.44 % ID/g.

Q: And the “Femur % ID/g” value (+ 0.01 nmole carrier)?
A: The value was 3.05 % ID/g and 4.01 % ID/g.

Q: And the “Heart % ID/g” value (+ 0.01 nmole carrier)?
A: Its value is 4.74 % ID/g and 4.50 % ID/g.

Q: And the “Kidney % ID/g” value (+ 0.01 nmole carrier)?
A: The value was 2.82 % ID/g and 3.11 % ID/g.

Q: What about the “Large intestine % ID/g” value (+ 0.01 nmole carrier) of the same compound?
A: Its value is 1.60 % ID/g and 1.63 % ID/g.

Q: And the “Liver % ID/g” value (+ 0.01 nmole carrier)?
A: Its value is 2.78 % ID/g and 3.40 % ID/g.

Q: And the “Lung % ID/g” value (+ 0.01 nmole carrier)?
A: The value was 6.08 % ID/g and 6.21 % ID/g.

Q: What about the “Muscle % ID/g” value (+ 0.01 nmole carrier) of the same compound?
A: The value was 2.03 % ID/g and 1.73 % ID/g.

Q: And the “Pancreas % ID/g” value (+ 0.01 nmole carrier)?
A: The value was 4.01 % ID/g and 4.14 % ID/g.

Q: What about the “Salivary gland % ID/g” value (+ 0.01 nmole carrier) of the same compound?
A: Its value is 7.47 % ID/g and 7.48 % ID/g.

Q: What about the “Small intestine % ID/g” value (+ 0.01 nmole carrier) of the same compound?
A: Its value is 2.22 % ID/g and 2.17 % ID/g.

Q: And the “Spleen % ID/g” value (+ 0.01 nmole carrier)?
A: Its value is 1.88 % ID/g and 2.13 % ID/g.

Q: What about the “Stomach % ID/g” value (+ 0.01 nmole carrier) of the same compound?
A: The value was 1.33 % ID/g and 1.65 % ID/g.

Q: What about the “Tumor % ID/g” value (+ 0.01 nmole carrier) of the same compound?
A: Its value is 1.88 % ID/g and 2.86 % ID/g.

Q: And the “Bladder % ID/g” value [1]?
A: Its value is 6.14 % ID/g and 2.43 % ID/g.

Q: And the “Blood % ID/g” value [1]?
A: Its value is 7.42 % ID/g and 7.67 % ID/g.

Q: What about the “Brain % ID/g” value [1] of the same compound?
A: The value was 0.20 % ID/g and 0.21 % ID/g.

Q: What about the “Fat % ID/g” value [1] of the same compound?
A: The value was 0.94 % ID/g and 0.61 % ID/g.

Q: And the “Femur % ID/g” value [1]?
A: Its value is 2.83 % ID/g and 3.67 % ID/g.

Q: And the “Heart % ID/g” value [1]?
A: The value was 3.03 % ID/g and 3.04 % ID/g.

Q: What about the “Kidney % ID/g” value [1] of the same compound?
A: The value was 2.02 % ID/g and 2.55 % ID/g.

Q: What about the “Large intestine % ID/g” value [1] of the same compound?
A: The value was 1.48 % ID/g and 1.58 % ID/g.

Q: And the “Liver % ID/g” value [1]?
A: Its value is 1.92 % ID/g and 2.34 % ID/g.

Q: And the “Lung % ID/g” value [1]?
A: Its value is 4.05 % ID/g and 4.16 % ID/g.

Q: What about the “Muscle % ID/g” value [1] of the same compound?
A: The value was 1.47 % ID/g and 2.20 % ID/g.

Q: What about the “Pancreas % ID/g” value [1] of the same compound?
A: The value was 4.01 % ID/g and 6.69 % ID/g.

Q: And the “Salivary gland % ID/g” value [1]?
A: Its value is 10.22 % ID/g and 11.63 % ID/g.

Q: And the “Small intestine % ID/g” value [1]?
A: The value was 1.46 % ID/g and 2.18 % ID/g.

Q: And the “Spleen % ID/g” value [1]?
A: Its value is 1.37 % ID/g and 1.62 % ID/g.

Q: And the “Stomach % ID/g” value [1]?
A: Its value is 1.07 % ID/g and 1.48 % ID/g.

Q: What about the “Tumor % ID/g” value [1] of the same compound?
A: The value was 2.59 % ID/g and 4.26 % ID/g.

Q: And the “Bladder % ID/g” value [2]?
A: The value was 1.62 % ID/g and 1.87 % ID/g.

Q: What about the “Blood % ID/g” value [2] of the same compound?
A: The value was 3.88 % ID/g and 4.32 % ID/g.

Q: What about the “Brain % ID/g” value [2] of the same compound?
A: Its value is 0.08 % ID/g and 0.17 % ID/g.

Q: What about the “Fat % ID/g” value [2] of the same compound?
A: Its value is 2.17 % ID/g and 1.13 % ID/g.

Q: And the “Femur % ID/g” value [2]?
A: Its value is 3.44 % ID/g and 4.00 % ID/g.

Q: What about the “Heart % ID/g” value [2] of the same compound?
A: The value was 1.80 % ID/g and 1.87 % ID/g.

Q: And the “Kidney % ID/g” value [2]?
A: The value was 2.03 % ID/g and 2.00 % ID/g.

Q: What about the “Large intestine % ID/g” value [2] of the same compound?
A: The value was 2.91 % ID/g and 1.79 % ID/g.

Q: What about the “Liver % ID/g” value [2] of the same compound?
A: Its value is 1.01 % ID/g and 1.30 % ID/g.

Q: What about the “Lung % ID/g” value [2] of the same compound?
A: Its value is 2.31 % ID/g and 2.83 % ID/g.

Q: And the “Muscle % ID/g” value [2]?
A: The value was 1.69 % ID/g and 2.25 % ID/g.

Q: What about the “Pancreas % ID/g” value [2] of the same compound?
A: The value was 4.18 % ID/g and 5.17 % ID/g.

Q: What about the “Salivary gland % ID/g” value [2] of the same compound?
A: Its value is 7.28 % ID/g and 9.35 % ID/g.

Q: What about the “Small intestine % ID/g” value [2] of the same compound?
A: Its value is 1.66 % ID/g and 1.63 % ID/g.

Q: What about the “Spleen % ID/g” value [2] of the same compound?
A: The value was 0.91 % ID/g and 1.01 % ID/g.

Q: And the “Stomach % ID/g” value [2]?
A: Its value is 0.89 % ID/g and 1.12 % ID/g.

Q: What about the “Tumor % ID/g” value [2] of the same compound?
A: The value was 5.48 % ID/g and 4.73 % ID/g.

Q: And the “Bladder % ID/g” value [3]?
A: The value was 3.04 % ID/g and 1.98 % ID/g.

Q: And the “Blood % ID/g” value [3]?
A: The value was 1.76 % ID/g and 2.03 % ID/g.

Q: What about the “Brain % ID/g” value [3] of the same compound?
A: The value was 0.08 % ID/g.

Q: What about the “Fat % ID/g” value [3] of the same compound?
A: Its value is 0.65 % ID/g and 0.37 % ID/g.

Q: What about the “Femur % ID/g” value [3] of the same compound?
A: Its value is 3.97 % ID/g and 4.56 % ID/g.

Q: What about the “Heart % ID/g” value [3] of the same compound?
A: The value was 0.91 % ID/g.

Q: What about the “Kidney % ID/g” value [3] of the same compound?
A: Its value is 1.70 % ID/g and 2.15 % ID/g.

Q: And the “Large intestine % ID/g” value [3]?
A: The value was 0.62 % ID/g and 0.68 % ID/g.

Q: And the “Liver % ID/g” value [3]?
A: The value was 0.73 % ID/g and 0.77 % ID/g.

Q: And the “Lung % ID/g” value [3]?
A: The value was 1.17 % ID/g and 1.57 % ID/g.

Q: What about the “Muscle % ID/g” value [3] of the same compound?
A: The value was 1.32 % ID/g and 1.19 % ID/g.

Q: And the “Pancreas % ID/g” value [3]?
A: Its value is 2.11 % ID/g and 1.42 % ID/g.

Q: What about the “Salivary gland % ID/g” value [3] of the same compound?
A: Its value is 3.78 % ID/g and 2.85 % ID/g.

Q: And the “Small intestine % ID/g” value [3]?
A: Its value is 0.75 % ID/g and 1.07 % ID/g.

Q: What about the “Spleen % ID/g” value [3] of the same compound?
A: The value was 0.44 % ID/g and 0.48 % ID/g.

Q: And the “Stomach % ID/g” value [3]?
A: Its value is 0.61 % ID/g and 0.77 % ID/g.

Q: What about the “Tumor % ID/g” value [3] of the same compound?
A: The value was 3.93 % ID/g and 3.11 % ID/g.

Q: And the “Bladder % ID/g” value [4]?
A: The value was 2.09 % ID/g and 6.57 % ID/g.

Q: What about the “Blood % ID/g” value [4] of the same compound?
A: The value was 3.99 % ID/g and 4.29 % ID/g.

Q: And the “Brain % ID/g” value [4]?
A: The value was 0.10 % ID/g and 0.09 % ID/g.

Q: What about the “Fat % ID/g” value [4] of the same compound?
A: Its value is 0.89 % ID/g and 0.82 % ID/g.

Q: What about the “Femur % ID/g” value [4] of the same compound?
A: Its value is 3.67 % ID/g and 3.18 % ID/g.

Q: What about the “Heart % ID/g” value [4] of the same compound?
A: Its value is 2.25 % ID/g and 2.02 % ID/g.

Q: What about the “Kidney % ID/g” value [4] of the same compound?
A: The value was 2.00 % ID/g and 2.27 % ID/g.

Q: What about the “Large intestine % ID/g” value [4] of the same compound?
A: The value was 2.18 % ID/g and 1.97 % ID/g.

Q: What about the “Liver % ID/g” value [4] of the same compound?
A: The value was 1.71 % ID/g and 1.81 % ID/g.

Q: What about the “Lung % ID/g” value [4] of the same compound?
A: The value was 2.51 % ID/g and 2.98 % ID/g.

Q: And the “Muscle % ID/g” value [4]?
A: The value was 2.02 % ID/g and 2.04 % ID/g.

Q: What about the “Pancreas % ID/g” value [4] of the same compound?
A: Its value is 10.66 % ID/g and 9.69 % ID/g.

Q: And the “Salivary gland % ID/g” value [4]?
A: Its value is 9.63 % ID/g and 9.35 % ID/g.

Q: What about the “Small intestine % ID/g” value [4] of the same compound?
A: Its value is 2.86 % ID/g and 1.91 % ID/g.

Q: What about the “Spleen % ID/g” value [4] of the same compound?
A: The value was 1.60 % ID/g and 1.01 % ID/g.

Q: And the “Stomach % ID/g” value [4]?
A: Its value is 1.47 % ID/g.

Q: What about the “Tumor % ID/g” value [4] of the same compound?
A: The value was 8.22 % ID/g and 9.06 % ID/g.

Q: And the “Bladder % ID/g” value [5]?
A: The value was 8.20 % ID/g.

Q: What about the “Blood % ID/g” value [5] of the same compound?
A: Its value is 5.82 % ID/g.

Q: What about the “Brain % ID/g” value [5] of the same compound?
A: Its value is 0.16 % ID/g.

Q: What about the “Fat % ID/g” value [5] of the same compound?
A: The value was 0.90 % ID/g.

Q: What about the “Femur % ID/g” value [5] of the same compound?
A: The value was 2.41 % ID/g.

Q: What about the “Heart % ID/g” value [5] of the same compound?
A: The value was 3.48 % ID/g.

Q: And the “Kidney % ID/g” value [5]?
A: Its value is 2.45 % ID/g.

Q: What about the “Large intestine % ID/g” value [5] of the same compound?
A: The value was 2.26 % ID/g.
